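Exposure lasted 48 hours, with cells grown in 96-well plates and compounds tested at five concentrations. TGI: total growth inhibition.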
Legend:
Experiment in all cases: NCI tumour cell line growth inhibition, 48 h
NCI-H226 lung = test system: NCI-H226 lung
SN12C renal = test system: SN12C renal
MALME-3M melanoma = test system: MALME-3M melanoma
OVCAR-5 ovarian = test system: OVCAR-5 ovarian
MDA-MB-231 breast = test system: MDA-MB-231 breast
UACC-257 melanoma = test system: UACC-257 melanoma
BT-549 breast = test system: BT-549 breast
NCI-H522 lung = test system: NCI-H522 lung
COLO 205 colon = test system: COLO 205 colon
OVCAR-3 ovarian = test system: OVCAR-3 ovarian
OVCAR-8 ovarian = test system: OVCAR-8 ovarian
HCT-15 colon = test system: HCT-15 colon
NCI-H460 lung = test system: NCI-H460 lung
M14 melanoma = test system: M14 melanoma
HL-60(TB) leukemia = test system: HL-60(TB) leukemia
SK-MEL-2 melanoma = test system: SK-MEL-2 melanoma
T-47D breast = test system: T-47D breast
NCI/ADR-RES ovarian = test system: NCI/ADR-RES ovarian
SW-620 colon = test system: SW-620 colon
K-562 leukemia = test system: K-562 leukemia
RPMI-8226 leukemia = test system: RPMI-8226 leukemia
MOLT-4 leukemia = test system: MOLT-4 leukemia
HT29 colon = test system: HT29 colon
DU-145 prostate = test system: DU-145 prostate
KM12 colon = test system: KM12 colon
PC-3 prostate = test system: PC-3 prostate
SK-MEL-5 melanoma = test system: SK-MEL-5 melanoma
SNB-19 CNS = test system: SNB-19 CNS
MDA-MB-435 = test system: MDA-MB-435
SNB-75 CNS = test system: SNB-75 CNS
SF-295 CNS = test system: SF-295 CNS
HCT-116 colon = test system: HCT-116 colon
IGROV1 ovarian = test system: IGROV1 ovarian
SR leukemia = test system: SR leukemia
NCI-H23 lung = test system: NCI-H23 lung
UO-31 renal = test system: UO-31 renal
ACHN renal = test system: ACHN renal
MCF7 breast = test system: MCF7 breast
HCC-2998 colon = test system: HCC-2998 colon
MDA-N = test system: MDA-N
SK-MEL-28 melanoma = test system: SK-MEL-28 melanoma
786-0 renal = test system: 786-0 renal
U251 CNS = test system: U251 CNS
EKVX NSCLC = test system: EKVX NSCLC
LOX IMVI melanoma = test system: LOX IMVI melanoma
HS 578T breast = test system: HS 578T breast
HOP-62 NSCLC = test system: HOP-62 NSCLC
SK-OV-3 ovarian = test system: SK-OV-3 ovarian
CAKI-1 renal = test system: CAKI-1 renal
SF-268 CNS = test system: SF-268 CNS
TK-10 renal = test system: TK-10 renal
RXF 393 renal = test system: RXF 393 renal
UACC-62 melanoma = test system: UACC-62 melanoma
OVCAR-4 ovarian = test system: OVCAR-4 ovarian
A549 NSCLC = test system: A549 NSCLC

CC1=C(C(=O)OC(C)C)C(c2ccccc2[N+](=O)[O-])C(C(=O)OC(CO[N+](=O)[O-])CO[N+](=O)[O-])=C(C)N1 (stereo not given)
TGI (NCI-H226 lung): 28.5 µM | TGI (SN12C renal): 52.6 µM | TGI (MALME-3M melanoma): 23.6 µM | TGI (OVCAR-5 ovarian): > 100 µM | TGI (MDA-MB-231 breast): 35.4 µM | TGI (UACC-257 melanoma): 15.7 µM | TGI (BT-549 breast): 26 µM | TGI (NCI-H522 lung): 8.45 µM | TGI (COLO 205 colon): 38.8 µM | TGI (OVCAR-3 ovarian): 76.7 µM | TGI (OVCAR-8 ovarian): 22 µM | TGI (HCT-15 colon): 16.2 µM | TGI (NCI-H460 lung): 16 µM | TGI (M14 melanoma): 14.3 µM | TGI (HL-60(TB) leukemia): > 100 µM | TGI (SK-MEL-2 melanoma): 9.64 µM | TGI (T-47D breast): > 100 µM | TGI (NCI/ADR-RES ovarian): 12.2 µM | TGI (SW-620 colon): 18.9 µM | TGI (K-562 leukemia): 71.6 µM | TGI (RPMI-8226 leukemia): > 100 µM | TGI (MOLT-4 leukemia): 5.9 µM | TGI (HT29 colon): 7.98 µM | TGI (DU-145 prostate): > 100 µM | TGI (KM12 colon): 22.8 µM | TGI (PC-3 prostate): 12.2 µM | TGI (SK-MEL-5 melanoma): 4.78 µM | TGI (SNB-19 CNS): 23.8 µM | TGI (MDA-MB-435): 13.2 µM | TGI (SNB-75 CNS): 8.19 µM | TGI (SF-295 CNS): 6.95 µM | TGI (HCT-116 colon): 11.4 µM | TGI (IGROV1 ovarian): 27.9 µM | TGI (SR leukemia): > 100 µM | TGI (NCI-H23 lung): 39.2 µM | TGI (UO-31 renal): 16.2 µM | TGI (ACHN renal): 23.7 µM | TGI (MCF7 breast): 27.9 µM | TGI (HCC-2998 colon): 43 µM | TGI (MDA-N): 8.43 µM | TGI (SK-MEL-28 melanoma): 17.9 µM | TGI (786-0 renal): 14.4 µM | TGI (U251 CNS): 13.4 µM | TGI (EKVX NSCLC): 18.8 µM | TGI (LOX IMVI melanoma): 11.3 µM | TGI (HS 578T breast): 25.8 µM | TGI (HOP-62 NSCLC): 11.2 µM | TGI (SK-OV-3 ovarian): 12.6 µM | TGI (CAKI-1 renal): 19.3 µM | TGI (SF-268 CNS): 16.8 µM | TGI (TK-10 renal): > 100 µM | TGI (RXF 393 renal): 15.5 µM | TGI (UACC-62 melanoma): 8.14 µM | TGI (OVCAR-4 ovarian): 22.4 µM | TGI (A549 NSCLC): 12.9 µM

Source: PubChem BioAssay (NCI)
